Assay results published in PMC5218480 (PLoS ONE, 2017).

Tested on: MV-4-11 cells
Experiment: Gene expression microarray analysis (Affymetrix PrimeView) and GSEA
Format: cell-based, human
Design: RFU PODN (11730768_x_at) / Fold change /veh PODN (11730768_x_at) / RFU LINC00158 (11744669_a_at) / Fold change /veh LINC00158 (11744669_a_at) / RFU DUSP10 (11751237_a_at) / Fold change /veh DUSP10 (11751237_a_at) / RFU ID3 (11757404_x_at) / Fold change /veh ID3 (11757404_x_at) / RFU PLEKHG5 (11737974_s_at) / Fold change /veh PLEKHG5 (11737974_s_at) / RFU LRRC4B (11730491_at) / Fold change /veh LRRC4B (11730491_at) / RFU GIMAP4 (11747438_a_at) / Fold change /veh GIMAP4 (11747438_a_at) / RFU KRT8 (11758183_x_at) / Fold change /veh KRT8 (11758183_x_at) / RFU CNN1 (11734310_a_at) / Fold change /veh CNN1 (11734310_a_at) / RFU VPS37D (11726825_at) / Fold change /veh VPS37D (11726825_at) / RFU C10orf10 (11716522_x_at) / Fold change /veh C10orf10 (11716522_x_at) / RFU KIR2DL2 /// KIR2DL4 /// KIR2DL5A /// KIR2DL5B /// KIR2DS1 /// KIR2DS2 /// KIR2DS3 /// KIR2DS4 /// KIR3DL3 /// KIR3DL3 /// KIR3DS1 (11738374_at) / Fold change /veh KIR2DL2 /// KIR2DL4 /// KIR2DL5A /// KIR2DL5B /// KIR2DS1 /// KIR2DS2 /// KIR2DS3 /// KIR2DS4 /// KIR3DL3 /// KIR3DL3 /// KIR3DS1 (11738374_at) / RFU C1QL1 (11718748_at) / Fold change /veh C1QL1 (11718748_at) / RFU TMPRSS4 (11747572_a_at) / Fold change /veh TMPRSS4 (11747572_a_at) / RFU HAMP (11756126_x_at) / Fold change /veh HAMP (11756126_x_at) / RFU RNFT2 (11725882_a_at) / Fold change /veh RNFT2 (11725882_a_at) / RFU NR4A2 (11747474_a_at) / Fold change /veh NR4A2 (11747474_a_at) / RFU ABCC12 (11746883_a_at) / Fold change /veh ABCC12 (11746883_a_at) / RFU TMEM136 (11760407_x_at) / Fold change /veh TMEM136 (11760407_x_at) / RFU CLDN22 /// WWC2 (11732394_at) / Fold change /veh CLDN22 /// WWC2 (11732394_at) / RFU HLA-DPB1 (11760878_x_at) / Fold change /veh HLA-DPB1 (11760878_x_at) / RFU SPINT1 (11716480_a_at) / Fold change /veh SPINT1 (11716480_a_at) / RFU GAP43 (11754022_s_at) / Fold change /veh GAP43 (11754022_s_at) / RFU A4GNT (11735810_at) / Fold change /veh A4GNT (11735810_at) / RFU PRB3 (11715151_x_at) / Fold change /veh PRB3 (11715151_x_at) / RFU TUBB4B (11761932_at) / Fold change /veh TUBB4B (11761932_at) / RFU CAPN14 (11732068_a_at) / Fold change /veh CAPN14 (11732068_a_at) / RFU TMCC2 (11721928_a_at) / Fold change /veh TMCC2 (11721928_a_at) / RFU IRGQ (11745062_a_at) / Fold change /veh IRGQ (11745062_a_at) / RFU FAM174B (11720279_a_at) / Fold change /veh FAM174B (11720279_a_at) / RFU TMPRSS4 (11748680_a_at) / Fold change /veh TMPRSS4 (11748680_a_at) / RFU FAM212B (11763350_a_at) / Fold change /veh FAM212B (11763350_a_at) / RFU PLEKHG5 (11743358_a_at) / Fold change /veh PLEKHG5 (11743358_a_at) / RFU ZSCAN30 (11745921_a_at) / Fold change /veh ZSCAN30 (11745921_a_at) / RFU CMKLR1 (11741424_a_at) / Fold change /veh CMKLR1 (11741424_a_at) / RFU LOC101060620 /// MAPK8IP1 (11723275_at) / Fold change /veh LOC101060620 /// MAPK8IP1 (11723275_at) / RFU SPTSSB (11747773_x_at) / Fold change /veh SPTSSB (11747773_x_at) / RFU PRSS12 (11739890_at) / Fold change /veh PRSS12 (11739890_at) / RFU BIN1 (11741810_x_at) / Fold change /veh BIN1 (11741810_x_at) / RFU WNT11 (11732464_a_at) / Fold change /veh WNT11 (11732464_a_at) / RFU C10orf10 (11716521_a_at) / Fold change /veh C10orf10 (11716521_a_at) / RFU C5orf56 (11738089_at) / Fold change /veh C5orf56 (11738089_at) / RFU CYB561 (11721691_x_at) / Fold change /veh CYB561 (11721691_x_at) / RFU ANKRD19P (11752326_a_at) / Fold change /veh ANKRD19P (11752326_a_at) / RFU OR2T12 /// OR2T33 /// OR2T8 (11738714_s_at) / Fold change /veh OR2T12 /// OR2T33 /// OR2T8 (11738714_s_at) / RFU VCAN (11748164_a_at) / Fold change /veh VCAN (11748164_a_at) / RFU JSRP1 (11732532_at) / Fold change /veh JSRP1 (11732532_at) / RFU KRTAP10-11 (11738290_x_at) / Fold change /veh KRTAP10-11 (11738290_x_at) / RFU MYO3A (11730013_a_at) / Fold change /veh MYO3A (11730013_a_at) / RFU EBF3 (11725865_a_at) / Fold change /veh EBF3 (11725865_a_at) / RFU CAMK2N1 (11719241_x_at) / Fold change /veh CAMK2N1 (11719241_x_at) / RFU C5orf56 (11738088_a_at) / Fold change /veh C5orf56 (11738088_a_at) / RFU OLFML3 (11715873_a_at) / Fold change /veh OLFML3 (11715873_a_at) / RFU LOC100653217 /// NTM (11731650_a_at) / Fold change /veh LOC100653217 /// NTM (11731650_a_at) / RFU MAPK11 (11762145_a_at) / Fold change /veh MAPK11 (11762145_a_at) / RFU FIZ1 (11724087_x_at) / Fold change /veh FIZ1 (11724087_x_at) / RFU OASL (11726364_x_at) / Fold change /veh OASL (11726364_x_at) / RFU SOX15 (11748057_x_at) / Fold change /veh SOX15 (11748057_x_at) / RFU CD79A (11719716_a_at) / Fold change /veh CD79A (11719716_a_at) / RFU HIST1H1D (11736915_at) / Fold change /veh HIST1H1D (11736915_at) / RFU CASKIN2 (11723855_a_at) / Fold change /veh CASKIN2 (11723855_a_at) / RFU LOC730098 (11760151_x_at) / Fold change /veh LOC730098 (11760151_x_at) / RFU OR4N2 (11742367_at) / Fold change /veh OR4N2 (11742367_at) / RFU PRRT2 (11749266_a_at) / Fold change /veh PRRT2 (11749266_a_at) / RFU SNX32 (11753110_a_at) / Fold change /veh SNX32 (11753110_a_at) / RFU CDHR5 (11726645_a_at) / Fold change /veh CDHR5 (11726645_a_at) / RFU RCAN1 (11760418_a_at) / Fold change /veh RCAN1 (11760418_a_at) / RFU FAM167A (11723789_a_at) / Fold change /veh FAM167A (11723789_a_at) / RFU FAM26E (11764081_at) / Fold change /veh FAM26E (11764081_at) / RFU ISYNA1 (11749810_s_at) / Fold change /veh ISYNA1 (11749810_s_at) / RFU ACY1 (11761880_at) / Fold change /veh ACY1 (11761880_at) / RFU 11764098_at / Fold change /veh 11764098_at / RFU SAMD14 (11745864_x_at) / Fold change /veh SAMD14 (11745864_x_at) / RFU NPB (11741838_a_at) / Fold change /veh NPB (11741838_a_at) / RFU TMPRSS6 (11731388_a_at) / Fold change /veh TMPRSS6 (11731388_a_at) / RFU KRTAP10-2 (11738614_at) / Fold change /veh KRTAP10-2 (11738614_at) / RFU ARHGAP8 /// PRR5-ARHGAP8 (11727945_x_at) / Fold change /veh ARHGAP8 /// PRR5-ARHGAP8 (11727945_x_at) / RFU KRTAP5-7 /// NADSYN1 (11734609_at) / Fold change /veh KRTAP5-7 /// NADSYN1 (11734609_at) / RFU RASL12 (11751679_a_at) / Fold change /veh RASL12 (11751679_a_at) / RFU CDKN2B (11736163_a_at) / Fold change /veh CDKN2B (11736163_a_at) / RFU PRF1 (11729649_at) / Fold change /veh PRF1 (11729649_at) / RFU, ZNF638 /// ZNF638-IT1 / Fold change vs veh, ZNF638 /// ZNF638-IT1 / RFU, PANK3 / Fold change vs veh, PANK3 / RFU, SH3YL1 / Fold change vs veh, SH3YL1 / RFU, ZEB2 / Fold change vs veh, ZEB2 / RFU, NRIP1 / Fold change vs veh, NRIP1 / RFU, PTTG1IP / Fold change vs veh, PTTG1IP / RFU, CAPN2 / Fold change vs veh, CAPN2 / RFU, MED14 / Fold change vs veh, MED14 / RFU, SNORA58 / Fold change vs veh, SNORA58 / RFU, C1orf63 / Fold change vs veh, C1orf63 / RFU, LRRFIP1 / Fold change vs veh, LRRFIP1 / RFU, NDUFAF7 / Fold change vs veh, NDUFAF7 / RFU, SLC12A2 / Fold change vs veh, SLC12A2 / RFU, IBTK / Fold change vs veh, IBTK / RFU, ESF1 / Fold change vs veh, ESF1 / Fold change vs veh, TMEM50B / RFU, TAOK1 / Fold change vs veh, TAOK1 / RFU, ACBD3 / Fold change vs veh, ACBD3 / RFU, TMA16 / Fold change vs veh, TMA16 / RFU, RWDD3 / Fold change vs veh, RWDD3 / RFU, BCAT1 / Fold change vs veh, BCAT1 / RFU, EDEM3 / Fold change vs veh, EDEM3 / RFU, TMEM33 / Fold change vs veh, TMEM33 / RFU, WDR75 / Fold change vs veh, WDR75 / RFU, AHCTF1 / Fold change vs veh, AHCTF1 / RFU, TFRC / Fold change vs veh, TFRC / RFU, ZDHHC17 / Fold change vs veh, ZDHHC17 / RFU, NOM1 / Fold change vs veh, NOM1 / RFU, ARL8B / Fold change vs veh, ARL8B / RFU, ZBTB11 / Fold change vs veh, ZBTB11 / RFU, TAMM41 / Fold change vs veh, TAMM41 / RFU, KIAA1704 /// LOC100996395 / Fold change vs veh, KIAA1704 /// LOC100996395 / RFU, ING1 / Fold change vs veh, ING1 / RFU, TRMT61B / Fold change vs veh, TRMT61B / RFU, FUBP3 / Fold change vs veh, FUBP3 / RFU, TP53 / Fold change vs veh, TP53 / RFU, TNKS2 / Fold change vs veh, TNKS2 / RFU, ZFP14 / Fold change vs veh, ZFP14 / RFU, ACTR2 / Fold change vs veh, ACTR2 / RFU, PPP3R1 / Fold change vs veh, PPP3R1 / RFU, PIK3R1 / Fold change vs veh, PIK3R1 / RFU, HNRNPA1 / Fold change vs veh, HNRNPA1 / RFU, RNF170 / Fold change vs veh, RNF170 / RFU, ZNF28 / Fold change vs veh, ZNF28 / RFU, RNGTT / Fold change vs veh, RNGTT / RFU, OGT / Fold change vs veh, OGT / RFU, BRD1 / Fold change vs veh, BRD1 / RFU, MARS / Fold change vs veh, MARS / RFU, ZNF655 / Fold change vs veh, ZNF655 / RFU, FAHD1 / Fold change vs veh, FAHD1 / RFU, BDP1 / Fold change vs veh, BDP1 / RFU, LRRCC1 / Fold change vs veh, LRRCC1 / RFU, ARID1A / Fold change vs veh, ARID1A / RFU, ZNF146 / Fold change vs veh, ZNF146 / RFU, ZNF330 / Fold change vs veh, ZNF330 / RFU, GPN3 / Fold change vs veh, GPN3 / RFU, C9orf123 / Fold change vs veh, C9orf123 / RFU, N4BP2L2 / Fold change vs veh, N4BP2L2 / RFU, ARFIP1 / Fold change vs veh, ARFIP1 / RFU, FAM179B / Fold change vs veh, FAM179B / RFU, BCL10 / Fold change vs veh, BCL10 / RFU, UHRF1BP1L / Fold change vs veh, UHRF1BP1L / RFU, BET1 / Fold change vs veh, BET1 / RFU, CNOT2 / Fold change vs veh, CNOT2 / RFU, ZNF268 / Fold change vs veh, ZNF268 / Fold change vs veh, ZNF507 / RFU, DGCR2 / Fold change vs veh, DGCR2 / RFU, WDSUB1 / Fold change vs veh, WDSUB1 / Fold change vs veh, HSP90B1 /// MIR3652 / RFU, ADSS / Fold change vs veh, ADSS / RFU, GK / Fold change vs veh, GK / RFU, ZNF148 / Fold change vs veh, ZNF148 / RFU, TAF9 / Fold change vs veh, TAF9 / RFU, SLC1A5 / Fold change vs veh, SLC1A5 / RFU, SLMO2 / Fold change vs veh, SLMO2 / RFU, ABCC4 / Fold change vs veh, ABCC4 / RFU, LOC101060439 /// RAP1B / Fold change vs veh, LOC101060439 /// RAP1B / RFU, RFX7 / Fold change vs veh, RFX7 / RFU, GTPBP10 / Fold change vs veh, GTPBP10 / RFU, CNEP1R1 / Fold change vs veh, CNEP1R1 / RFU, BIVM-ERCC5 /// ERCC5 / Fold change vs veh, BIVM-ERCC5 /// ERCC5 / RFU, ILF3 / Fold change vs veh, ILF3 / RFU 11762660_at / Fold change /veh 11762660_at / RFU VCAN (11757783_s_at) / Fold change /veh VCAN (11757783_s_at) / RFU DDX43 (11728927_at) / Fold change /veh DDX43 (11728927_at) / RFU KRT8 (11758188_x_at) / Fold change /veh KRT8 (11758188_x_at) / RFU NKD1 (11759106_at) / Fold change /veh NKD1 (11759106_at) / RFU SRD5A1 (11742802_a_at) / Fold change /veh SRD5A1 (11742802_a_at) / RFU TPSAB1 /// TPSB2 (11721975_s_at) / Fold change /veh TPSAB1 /// TPSB2 (11721975_s_at) / RFU GSTM3 (11746129_a_at) / Fold change /veh GSTM3 (11746129_a_at) / RFU IL23R (11737362_x_at) / Fold change /veh IL23R (11737362_x_at) / RFU TMEM51 (11727254_a_at) / Fold change /veh TMEM51 (11727254_a_at) / RFU PIWIL2 (11732686_x_at) / Fold change /veh PIWIL2 (11732686_x_at) / RFU ORM1 (11744905_x_at) / Fold change /veh ORM1 (11744905_x_at) / RFU CCDC152 (11743942_at) / Fold change /veh CCDC152 (11743942_at) / RFU ECM1 (11717891_a_at) / Fold change /veh ECM1 (11717891_a_at) / RFU IL23R (11748794_a_at) / Fold change /veh IL23R (11748794_a_at) / RFU TNFAIP8L3 (11732012_x_at) / Fold change /veh TNFAIP8L3 (11732012_x_at) / RFU MBOAT4 (11741988_at) / Fold change /veh MBOAT4 (11741988_at) / RFU 11764193_at / Fold change /veh 11764193_at / RFU TMEM53 (11763286_at) / Fold change /veh TMEM53 (11763286_at) / RFU MAGEB2 (11727129_at) / Fold change /veh MAGEB2 (11727129_at) / RFU TMEM200A (11744735_a_at) / Fold change /veh TMEM200A (11744735_a_at) / RFU CCDC152 (11751479_a_at) / Fold change /veh CCDC152 (11751479_a_at) / RFU FAM211A (11726209_a_at) / Fold change /veh FAM211A (11726209_a_at) / RFU RGS16 (11746705_a_at) / Fold change /veh RGS16 (11746705_a_at) / RFU VCAN (11755009_s_at) / Fold change /veh VCAN (11755009_s_at) / RFU RHOB (11743442_s_at) / Fold change /veh RHOB (11743442_s_at) / RFU RGS16 (11720943_a_at) / Fold change /veh RGS16 (11720943_a_at) / RFU RGS16 (11720944_at) / Fold change /veh RGS16 (11720944_at) / RFU, VPS4B / Fold change vs veh, VPS4B / RFU, CREB1 / Fold change vs veh, CREB1 / RFU, DNAJC13 / Fold change vs veh, DNAJC13 / RFU, GNAQ / Fold change vs veh, GNAQ / RFU, CDK5R1 / Fold change vs veh, CDK5R1 / RFU, ZRANB3 / Fold change vs veh, ZRANB3 / RFU, CUL4A / Fold change vs veh, CUL4A / RFU, CCNY / Fold change vs veh, CCNY / RFU, UFL1 / Fold change vs veh, UFL1 / RFU, COG3 / Fold change vs veh, COG3 / RFU, DIAPH2 / Fold change vs veh, DIAPH2 / RFU, SKA2 / Fold change vs veh, SKA2 / RFU, AFF3 / Fold change vs veh, AFF3 / RFU, LMF1 / Fold change vs veh, LMF1 / RFU, IPO11 / Fold change vs veh, IPO11 / RFU, DFFB / Fold change vs veh, DFFB / RFU, FOXP1 / Fold change vs veh, FOXP1 / RFU, CARD8 / Fold change vs veh, CARD8 / RFU, STRN3 / Fold change vs veh, STRN3 / RFU, ADK / Fold change vs veh, ADK / RFU, RASSF2 / Fold change vs veh, RASSF2 / RFU, WIPF1 / Fold change vs veh, WIPF1 / RFU, LARP1B / Fold change vs veh, LARP1B / RFU, RASA1 / Fold change vs veh, RASA1 / RFU, RB1 / Fold change vs veh, RB1 / RFU, PPFIA1 / Fold change vs veh, PPFIA1 / RFU, MAT2A / Fold change vs veh, MAT2A / RFU, CCT5 / Fold change vs veh, CCT5 / RFU, WDR92 / Fold change vs veh, WDR92 / RFU, CUX1 / Fold change vs veh, CUX1 / RFU, TTC7A / Fold change vs veh, TTC7A / RFU, TMEM135 / Fold change vs veh, TMEM135 / RFU, DEPTOR / Fold change vs veh, DEPTOR / RFU, CPM / Fold change vs veh, CPM / RFU, DNAJB6 / Fold change vs veh, DNAJB6 / RFU, CACNA2D3 / Fold change vs veh, CACNA2D3 / RFU, DTX4 / Fold change vs veh, DTX4 / RFU, TFCP2 / Fold change vs veh, TFCP2 / RFU, GMCL1 /// GMCL1P1 / Fold change vs veh, GMCL1 /// GMCL1P1 / RFU, AEBP2 / Fold change vs veh, AEBP2 / RFU, SNHG1 /// SNORD22 /// SNORD25 /// SNORD26 /// SNORD27 /// SNORD28 /// SNORD29 /// SNORD31 / Fold change vs veh, SNHG1 /// SNORD22 /// SNORD25 /// SNORD26 /// SNORD27 /// SNORD28 /// SNORD29 /// SNORD31 / Fold change (Aza/veh), C12orf56 (ProbeSet 11735607_a_at) / Fold change (ACY-1035/veh), C12orf56 (ProbeSet 11735607_a_at) / Fold change (Aza/veh), FGFR1OP (ProbeSet 11751329_s_at) / Fold change (ACY-1035/veh), FGFR1OP (ProbeSet 11751329_s_at) / Fold change (Aza/veh), VPS36 (ProbeSet 11739960_a_at) / Fold change (ACY-1035/veh), VPS36 (ProbeSet 11739960_a_at) / RFU SYPL1 (11715823_x_at) / Fold change /veh SYPL1 (11715823_x_at) / RFU IGFBP7 (11715501_s_at) / Fold change /veh IGFBP7 (11715501_s_at) / RFU REEP3 (11722064_at) / Fold change /veh REEP3 (11722064_at) / RFU IGLL1 (11728026_x_at) / Fold change /veh IGLL1 (11728026_x_at): dose or concentration left out as unconfirmed
Details: gene VPS36; ACY-1035 vs DMSO; LIST F

Nc1ccc(-c2cccs2)cc1NC(=O)c1ccc2c(c1)cc(C1CC1)n2CCN1CCOCC1 [ACY-1035]
Fold change (ACY-1035/veh), VPS36 (ProbeSet 11739960_a_at): 0.53
